Consider 11 compounds from patent US6706740B2, “Fungicidal heterocyclic aromatic amides and their compositions, methods of use and preparation” (Dow AgroSciences LLC, priority 1999, dated 2004).

Assay [1] has as its system Puccinia recondita—PUCCRT. The assay can be described thus: Brown Rust of Wheat, in vivo whole plant, 24 Hour Protectant. Particulars: for pest or weed control at 100 ppm: Puccinia, read-out: PUCCRT in vivo 1 Day Protectant.
The subject of assay [2] is Rhizoctonia solani (RHIZSO). The assay can be described thus: microbe, parasite or virus in culture. Particulars: Rhizoctonia solani, read-out: RHIZSO in vitro Growth Inhibition. It counts as cell-based.
In assay [3] the test system is Stagonospora nodorum (Leptosphaeria nodorum—LEPTNO). Nature of the assay: In vitro fungal growth inhibition, Stagonospora nodorum (LEPTNO). It counts as cell-based. Particulars: Leptosphaeria, read-out: LEPTNO in vitro Growth Inhibition.
The test system of assay [4] is Ustilago maydis (USTIMA). The assay can be described thus: microbe, parasite or virus in culture. Particulars: Mycosarcoma maydis, read-out: USTIMA in vitro Growth Inhibition. The class given is cell-based.
Assay [5] relates to Leptosphaeria nodorum—LEPTNO. The assay can be described thus: Glume Blotch of Wheat, in vivo whole plant, 24 Hour Protectant. Particulars: for pest or weed control at 100 ppm: Leptosphaeria, read-out: LEPTNO in vivo 1 Day Protectant.
For assay [6], the system named is Erysiphe graminis—ERYSGT. The assay can be described thus: Powdery Mildew of Wheat, in vivo whole plant, 24 Hour Protectant. Particulars: Erysiphe, read-out: ERYSGT in vivo 1 Day Protectant.
The test system of assay [7] is Phytophthora infestans—PHYTIN. Nature of the assay: whole plant or invertebrate. The class given is in vivo. Particulars: Phytophthora, in Solanum lycopersicum, 24 h, read-out: PHYTIN in vivo 1 Day Protectant.
For assay [8], the system named is Mycosphaerella graminicola (Septoria tritici—SEPTTR). The assay can be described thus: In vitro fungal growth inhibition, Mycosphaerella graminicola (SEPTTR). The class given is cell-based. Particulars: Zymoseptoria tritici, read-out: SEPTTR in vitro Growth Inhibition.
Assay [9] deals with Septoria tritici—SEPTTR. The assay can be described thus: Leaf Blotch of Wheat, in vivo whole plant, 24 Hour Protectant. Particulars: for pest or weed control at 100 ppm: Zymoseptoria tritici, 24 h, read-out: SEPTTR in vivo 1 Day Protectant.
The subject of assay [10] is Magnaporthe grisea (Pyricularia oryzae—PYRIOR). The assay can be described thus: microbe, parasite or virus in culture. It counts as cell-based. Particulars: Pyricularia oryzae, read-out: PYRIOR in vitro Growth Inhibition.
The subject of assay [11] is Phytophthora infestans (PHYTIN). Nature of the assay: microbe, parasite or virus in culture. It counts as cell-based. Particulars: Phytophthora infestans, read-out: PHYTIN in vitro Growth Inhibition.
Where [12] appears, read: 100 ppm spray, wheat, 24 hour protectant, % control of fungal infection vs untreated plants.
Setting [13] is: 100 ppm spray, 24 hour protectant, wheat, control of fungal infection vs untreated plants.
The mark [14] stands for this setting: wheat plants sprayed at 100 ppm, inoculated after 24 hours, control of fungal infection vs untreated plants.
The mark [15] stands for this setting: 100 ppm spray, wheat, 24 hour protectant, control of fungal infection vs untreated plants.

Where two headings read alike, the source gives them in different places.

As a reminder, the inhibition is the percentage by which the read-out fell short of the control. With `COc1ccnc(C(=O)N[C@H]2COC(=O)[C@H](Cc3ccccc3)[C@@H](OC(=O)C(C)C)[C@H](C)OC2=O)c1OC(=O)CCCBr` [Compound 625], the “PUCCRT in vivo 1 Day Protectant” value in assay [1] (setting [12]) was “+ +”. The inhibition at 25 ppm was less than 80% in [2]; greater than 80% in [3] (25 ppm in growth medium); less than 80% in [4]; less than 80% in [8] (25 ppm in growth medium); less than 80% in assay [10]; less than 80% in assay [11]. For the same compound, the “LEPTNO in vivo 1 Day Protectant” value in assay [5] (setting [12]) is “+ +”. The pest or weed control at 100 ppm in [6] (setting [12]) and in assay [7] was less than 25% throughout. In addition, the “SEPTTR in vivo 1 Day Protectant” value in assay [9] (setting [12]) is “+ +”.

In the case of `COc1ccnc(C(=O)N[C@H]2COC(=O)[C@H](Cc3ccccc3)[C@@H](OC(=O)C(C)C)[C@H](C)OC2=O)c1OC(=O)c1cccs1` [Compound 674], in [1] (setting [12]), the “PUCCRT in vivo 1 Day Protectant” value is reported as “+ +”. In addition, the inhibition at 25 ppm is less than 80% in assay [2]; greater than 80% in assay [3] (25 ppm in growth medium); less than 80% in assay [4]; greater than 80% in [8] (25 ppm in growth medium); less than 80% in assay [10]; less than 80% in [11]. For the same compound, the pest or weed control at 100 ppm was 25 to 74% in assay [5] (setting [12]), less than 25% in assay [6] (setting [12]) and less than 25% in assay [7]. For the same compound, the “SEPTTR in vivo 1 Day Protectant” value in assay [9] (setting [12]) is recorded as “+ +”.

As to `COc1ccnc(C(=O)NC2CC(C)(C)/C=C\CC(C)(C)C2)c1O` (stereo not shown) [Compound 283], the pest or weed control at 100 ppm is 25 to 74% in [1] (setting [13]), 25 to 74% in assay [5] (setting [13]), less than 25% in assay [6] (setting [13]) and less than 25% in assay [7]. The inhibition at 25 ppm in assay [2], in assay [3] (25 ppm in growth medium), in assay [4], in assay [8] (25 ppm in growth medium), in [10] and in assay [11] was less than 80% throughout. Moreover, the “SEPTTR in vivo 1 Day Protectant” value in [9] (setting [13]) was “+ +”.

For the compound `COc1ccnc(C(=O)NC2CC(C)(C)CC(C)(C3CC3)C2)c1OC(C)=O` (stereo not shown) [Compound 573], the “PUCCRT in vivo 1 Day Protectant” value in [1] (setting [14]) is given as “+ +”. In addition, the inhibition at 25 ppm in assay [2] was less than 80%; in [3] (25 ppm in the growth medium), greater than 80%; in assay [4], less than 80%; in [8] (25 ppm in the growth medium), less than 80%; in assay [10], less than 80%; in assay [11], less than 80%. For the same compound, the “LEPTNO in vivo 1 Day Protectant” value in [5] (setting [14]) is recorded as “+ +”. In addition, the pest or weed control at 100 ppm in [6] (setting [14]) is less than 25%; in assay [7] it was less than 25%; in assay [9] (setting [14]) it was 25 to 74%.

For the compound `O=C(Nc1cccc(Oc2cccc(C(F)(F)F)c2)c1)c1nc(Br)ccc1O` [Compound 495], the pest or weed control at 100 ppm in [1] (setting [14]) was 25 to 74%; in assay [5] (setting [14]) it was less than 25%; in assay [6] (setting [14]), 25 to 74%; in assay [7], less than 25%; in assay [9] (setting [14]), 25 to 74%. In addition, the inhibition at 25 ppm in assay [2], in assay [3] (25 ppm in the growth medium), in assay [4], in [8] (25 ppm in the growth medium), in assay [10] and in assay [11] was less than 80% throughout.

With `COc1cc(Br)nc(C(=O)N[C@H]2COC(=O)[C@H](Cc3ccccc3)[C@@H](OC(=O)C3CCCCC3)[C@H](C)OC2=O)c1O` [Compound 501], the pest or weed control at 100 ppm was 25 to 74% in assay [1] (setting [14]); 25 to 74% in [5] (setting [14]); less than 25% in assay [6] (setting [14]); less than 25% in [7]; less than 25% in assay [9] (setting [14]). Moreover, the inhibition at 25 ppm in assay [2] is less than 80%; in assay [3] (25 ppm in the growth medium), greater than 80%; in [4], greater than 80%; in assay [8] (25 ppm in the growth medium) it was greater than 80%; in assay [10], greater than 80%; in [11], less than 80%.

As for `COc1ccnc(C(=O)N[C@H]2O[C@@H](C)[C@@H](OC(C)=O)[C@@H](OC(C)=O)[C@@H]2OC(C)=O)c1O` [Compound 333], the pest or weed control at 100 ppm is 25 to 74% in assay [1] (setting [15]); 25 to 74% in [5] (setting [15]); less than 25% in [6] (setting [15]); less than 25% in [7]; 25 to 74% in assay [9] (setting [15]). Besides, the inhibition at 25 ppm in assay [2], in assay [3] (25 ppm in growth medium), in assay [4], in [8] (25 ppm in growth medium), in [10] and in assay [11] was less than 80% in each case.

As to `COc1ccnc(C(=O)Nc2ccc(Oc3cccc(C#N)c3)cc2)c1O` [Compound 421], the pest or weed control at 100 ppm was less than 25% in assay [1] (setting [15]); 25 to 74% in assay [5] (setting [15]); less than 25% in [6] (setting [15]); less than 25% in assay [7]; less than 25% in assay [9] (setting [15]). Moreover, the inhibition at 25 ppm in assay [2], in [3] (25 ppm in growth medium), in [4], in assay [8] (25 ppm in growth medium), in assay [10] and in [11] was less than 80% each time.

Turning to `COc1ccnc(C(=O)N[C@@H]2C[C@@H](C(F)(F)F)C[C@@H](C(F)(F)F)C2)c1OC(C)=O` [Compound 577], the pest or weed control at 100 ppm in assay [1] (setting [14]) was less than 25%; in assay [5] (setting [14]) it was 25 to 74%; in assay [6] (setting [14]) it was less than 25%; in [7], less than 25%; in assay [9] (setting [14]) it was 25 to 74%. The inhibition at 25 ppm in assay [2], in assay [3] (25 ppm in the growth medium), in assay [4], in assay [8] (25 ppm in the growth medium), in assay [10] and in assay [11] was less than 80% throughout.

In the case of `CCCCC1(C)CCCC(NC(=O)c2nccc(OC)c2O)C1` (stereo not shown) [Compound 254], the pest or weed control at 100 ppm was 25 to 74% in assay [1] (setting [13]); 25 to 74% in assay [5] (setting [13]); less than 25% in assay [6] (setting [13]); less than 25% in assay [7]; 25 to 74% in [9] (setting [13]). Moreover, the inhibition at 25 ppm in [2] was less than 80%; in assay [3] (25 ppm in growth medium) it was greater than 80%; in assay [4] it was less than 80%; in [8] (25 ppm in growth medium) it was greater than 80%; in assay [10] it was greater than 80%; in assay [11], greater than 80%.

Take `CC1(C)CC(NC(=O)c2ccncc2O)CC(C)(C)C1` [Compound 505]: the pest or weed control at 100 ppm in [1] (setting [14]), in assay [5] (setting [14]), in assay [6] (setting [14]), in assay [7] and in assay [9] (setting [14]) was less than 25% in each case. Further, the inhibition at 25 ppm in assay [2], in assay [3] (25 ppm in the growth medium), in assay [4], in assay [8] (25 ppm in the growth medium), in [10] and in assay [11] was less than 80% throughout.
